Tested on: M4
Experiment: PET measurements of brain distribution in NHP (SUV, VT by 1-TC and Logan)
Format: in vivo, cynomolgus monkey (Macaca fascicularis)
Set-up: VT 1-TC Baseline: unit not given here
Details: for VT 1-TC %Decrease / VT Logan %Decrease: baseline vs pretreatment with CVL-231; for VT 1-TC Pretreatment / VT Logan Pretreatment: pretreatment with CVL-231
Description: Two male cynomolgus monkeys (Macaca fascicularis, NHP) M1 and M2, with body weight of 7.8 kg and 7.1 kg, respectively, were studied on three different experimental days for a total of six PET measurements. Both NHPs underwent two PET measurements on the same day. The first PET measurement was performed with [^11C]PF06885190, followed by the second PET measurement after pretreatment with either CVL-231 or donepezil. CVL-231 (0.24 mg/kg, IV) was administrated 10 min before the administration of [^11C]PF06885190 via a constant infusion (0.0027 mg/min/kg) throughout the whole PET measurement. Donepezil (0.25 mg/kg) was administrated 30 min before the administration of [^11C]PF06885190. Both NHPs were supplied by the Astrid Fagraeus Laboratory of the Swedish Institute for Infectious Disease Control (SMI), Solna, Sweden. The study was approved by the Animal Ethics Committee of the Swedish Animal Welfare Agency and was performed according to “Guidelines for planning, conducting and documenting experimental research” (Dnr 4820/06-600) of the KI as well as the “Guide for the Care and Use of Laboratory Animals” [26]. Anesthesia was initiated at Astrid Fagraeus Laboratory either by intramuscular injection of ketamine hydrochloride (10 mg/kg) and maintained by the administration of a mixture of isoflurane, oxygen, and medical air through endotracheal intubation, or by intravenous infusion of a mixture of ketamine hydrochloride (4 mg/kg/h) and xylazine hydrochloride (0.4 mg/kg/h). To fix the position of the head of the NHP during the course of whole PET measurement, a prototype device was used. Body temperature was maintained by a Bair Hugger-Model 505 (Arizant Health Care Inc., Eden Prairie, MN 55344, USA) and monitored by an oral thermometer. ECG, heart rate, respiratory rate and oxygen saturation were continuously monitored throughout the experiments and blood pressure was monitored every 15 min.
All the PET measurements in this study were performed by using a High Resolution Research Tomograph (HRRT) (Siemens Molecular Imaging) scanner. The corresponding in-plane resolution with OP-3D-OSEM PSF was 1.5 mm full width at half-maximum (FWHM) at the center of the field of view (FOV) and 2.4 mm at 10 cm off-center directions. List-mode data were acquired continuously for 123 min immediately after intravenous injection of [^11C]PF06885190. Images were reconstructed by the ordinary Poisson-3D-ordered subset expectation maximization (OP-3D-OSEM) algorithm. Prior to each PET acquisition, a 6 min transmission scan was performed, using a single ^137Cs source, for attenuation and scatter correction. Brain magnetic resonance imaging was performed in a 1.5-T GE Signa system (General Electric, Milwaukee, WI, USA). A T1-weighted image was obtained for co-registration with PET and delineation of anatomic brain regions. The T1 sequence was a 3D spoiled gradient-recalled (SPGR) protocol with the following settings: repetition time (TR) 21 ms, flip angle 35°; FOV 12.8; matrix 256 × 256 × 128; 128 × 1.0 mm slices; 2 NEX. The sequence was optimized for trade-off between a minimum of scanning time and a maximum of spatial resolution and contrast between gray and white matter.
For both NHPs, the radioligand [^11C]PF06885190 was administrated with an intravenous (i.v.) injection. The regions of interests (ROIs) were delineated manually on MRI images of each NHP for the whole brain, cerebellum, caudate, putamen, thalamus, frontal cortex, temporal cortex, hippocampus, anterior cingulate cortex, posterior cingulate cortex, parietal cortex, occipital cortex, amygdala, ventral striatum and insula. The summed PET images of the whole duration were co-registered to the MRI image of the individual NHP. After applying the co-registration parameters to the dynamic PET data, the time-activity curves (TACs) of brain regions were generated for each PET measurement. Standardized uptake value (SUV) was calculated for each brain region. […]

[1] = anterior cingulate cortex, baseline
[2] = posterior cingulate cortex, baseline

Cc1nc(N[11CH3])c2c(c1C)CN(C(=O)C[C@H]1C[C@@H]1c1ccc(F)nc1)C2 [[^11C]PF06885190]
Change of VT from baseline (after pretreatment with M4 PAM CVL-231): around −10% | VT 1-TC Baseline (amygdala, baseline): 2.290 | VT Logan Baseline (amygdala, baseline): 2.549 | VT 1-TC %Decrease (amygdala): 6.7% | VT Logan %Decrease (amygdala): 9.6% | VT 1-TC Pretreatment (amygdala): 2.137 | VT Logan Pretreatment (amygdala): 2.304 | VT 1-TC Baseline [1]: 2.245 | VT Logan Baseline [1]: 2.503 | VT 1-TC %Decrease (anterior cingulate cortex): 9.6% | VT Logan %Decrease (anterior cingulate cortex): 8.4% | VT 1-TC Pretreatment (anterior cingulate cortex): 2.030 | VT Logan Pretreatment (anterior cingulate cortex): 2.293 | VT 1-TC %Decrease (average of brain regions): 10.3% | VT Logan %Decrease (average of brain regions): 12% | Whole brain uptake at peak (baseline conditions, i.v.): 2.0–4.1 SUV | wash-out: time to drop to half of the peak (brain, baseline): around 10 min | VT 1-TC Baseline (caudate, baseline): 2.388 | VT Logan Baseline (caudate, baseline): 2.683 | VT 1-TC %Decrease (caudate): 1.3% | VT Logan %Decrease (caudate): 7.8% | VT 1-TC Pretreatment (caudate): 2.357 | VT Logan Pretreatment (caudate): 2.475 | VT 1-TC Baseline (cerebellum, baseline): 2.205 | VT Logan Baseline (cerebellum, baseline): 3.055 | VT 1-TC %Decrease (cerebellum): 15.0% | VT Logan %Decrease (cerebellum): 21.4% | VT 1-TC Pretreatment (cerebellum): 1.875 | VT Logan Pretreatment (cerebellum): 2.401 | change of VT after administration of donepezil (donepezil 0.25 mg/kg 30 min before radioligand): No significant change | VT 1-TC Baseline (frontal cortex, baseline): 2.521 | VT Logan Baseline (frontal cortex, baseline): 2.940 | VT 1-TC %Decrease (frontal cortex): 15.1% | VT Logan %Decrease (frontal cortex): 18.6% | VT 1-TC Pretreatment (frontal cortex): 2.140 | VT Logan Pretreatment (frontal cortex): 2.394 | VT 1-TC Baseline (hippocampus, baseline): 2.361 | VT Logan Baseline (hippocampus, baseline): 2.595 | VT 1-TC %Decrease (hippocampus): 9.1% | VT Logan %Decrease (hippocampus): 9.8% | VT 1-TC Pretreatment (hippocampus): 2.146 | VT Logan Pretreatment (hippocampus): 2.341 | VT 1-TC Baseline (insula, baseline): 2.617 | VT Logan Baseline (insula, baseline): 2.811 | VT 1-TC %Decrease (insula): 11.6% | VT Logan %Decrease (insula): 6.4% | VT 1-TC Pretreatment (insula): 2.314 | VT Logan Pretreatment (insula): 2.631 | VT 1-TC Baseline (occipital cortex, baseline): 2.871 | VT Logan Baseline (occipital cortex, baseline): 3.534 | VT 1-TC %Decrease (occipital cortex): 14.2% | VT Logan %Decrease (occipital cortex): 18.7% | VT 1-TC Pretreatment (occipital cortex): 2.462 | VT Logan Pretreatment (occipital cortex): 2.873 | VT 1-TC Baseline (parietal cortex, baseline): 2.515 | VT Logan Baseline (parietal cortex, baseline): 2.709 | VT 1-TC %Decrease (parietal cortex): 16.1% | VT Logan %Decrease (parietal cortex): 14.5% | VT 1-TC Pretreatment (parietal cortex): 2.109 | VT Logan Pretreatment (parietal cortex): 2.316 | VT 1-TC Baseline [2]: 2.384 | VT Logan Baseline [2]: 2.723 | VT 1-TC %Decrease (posterior cingulate cortex): 17.7% | VT Logan %Decrease (posterior cingulate cortex): 18.3% | VT 1-TC Pretreatment (posterior cingulate cortex): 1.963 | VT Logan Pretreatment (posterior cingulate cortex): 2.225 | decrease after pretreatment (pretreatment with specific M4 ligand CVL-231): 10% | VT 1-TC Baseline (putamen, baseline): 2.632 | VT Logan Baseline (putamen, baseline): 3.006 | VT 1-TC %Decrease (putamen): 3.5% | VT Logan %Decrease (putamen): 7.0% | VT 1-TC Pretreatment (putamen): 2.539 | VT Logan Pretreatment (putamen): 2.795 | VT 1-TC Baseline (temporal cortex, baseline): 2.690 | VT Logan Baseline (temporal cortex, baseline): 2.992 | VT 1-TC %Decrease (temporal cortex): 11.4% | VT Logan %Decrease (temporal cortex): 9.2% | VT 1-TC Pretreatment (temporal cortex): 2.383 | VT Logan Pretreatment (temporal cortex): 2.717 | VT 1-TC Baseline (thalamus, baseline): 2.496 | VT Logan Baseline (thalamus, baseline): 2.778 | VT 1-TC %Decrease (thalamus): 6.4% | VT Logan %Decrease (thalamus): 14.8% | VT 1-TC Pretreatment (thalamus): 2.337 | VT Logan Pretreatment (thalamus): 2.367 | VT 1-TC Baseline (ventral striatum, baseline): 2.305 | VT Logan Baseline (ventral striatum, baseline): 2.398 | VT 1-TC %Decrease (ventral striatum): 7.0% | VT Logan %Decrease (ventral striatum): 3.1% | VT 1-TC Pretreatment (ventral striatum): 2.144 | VT Logan Pretreatment (ventral striatum): 2.324
